Test results taken from the NIST ThermoML archive (doi:10.1016/j.jct.2018.01.019).
Numbers after ± are expanded uncertainties.

Experiment: molar heat capacity at constant pressure
Conditions: 101.33 kPa, Small sample (50 mg) DSC

O=[Si]=O [silicon dioxide]
Conditions | molar heat capacity at constant pressure [J/K/mol]
794.62 K, Crystal 2 | 71.82 ± 1.1
794.79 K, Crystal 2 | 71.62 ± 1.1
794.95 K, Crystal 2 | 71.49 ± 1.1
795.12 K, Crystal 2 | 71.46 ± 1.1
795.29 K, Crystal 2 | 71.47 ± 1.1
795.45 K, Crystal 2 | 71.5 ± 1.1
795.62 K, Crystal 2 | 71.77 ± 1.1
795.78 K, Crystal 2 | 71.9 ± 1.1
795.95 K, Crystal 2 | 71.83 ± 1.1
796.12 K, Crystal 2 | 71.66 ± 1.1
796.29 K, Crystal 2 | 71.81 ± 1.1
796.46 K, Crystal 2 | 72.04 ± 1.1
796.62 K, Crystal 2 | 72.01 ± 1.1
796.79 K, Crystal 2 | 71.86 ± 1.1
796.96 K, Crystal 2 | 71.68 ± 1.1
797.12 K, Crystal 2 | 71.48 ± 1.1
797.29 K, Crystal 2 | 71.6 ± 1.1
797.46 K, Crystal 2 | 71.73 ± 1.1
797.62 K, Crystal 2 | 71.68 ± 1.1
797.79 K, Crystal 2 | 71.65 ± 1.1
797.96 K, Crystal 2 | 71.81 ± 1.1
798.13 K, Crystal 2 | 71.82 ± 1.1
798.29 K, Crystal 2 | 71.7 ± 1.1
798.46 K, Crystal 2 | 71.81 ± 1.1
798.62 K, Crystal 2 | 71.8 ± 1.1
798.79 K, Crystal 2 | 71.9 ± 1.1
798.96 K, Crystal 2 | 72.09 ± 1.1
799.12 K, Crystal 2 | 72 ± 1.1
799.29 K, Crystal 2 | 71.85 ± 1.1
799.46 K, Crystal 2 | 71.85 ± 1.1
799.62 K, Crystal 2 | 71.85 ± 1.1
799.79 K, Crystal 2 | 71.96 ± 1.1
799.96 K, Crystal 2 | 72.13 ± 1.1
800.12 K, Crystal 2 | 72.26 ± 1.1
800.29 K, Crystal 2 | 72.07 ± 1.1
800.46 K, Crystal 2 | 71.86 ± 1.1
800.63 K, Crystal 2 | 72 ± 1.1
800.79 K, Crystal 2 | 72.09 ± 1.1
800.96 K, Crystal 2 | 72.12 ± 1.1
801.12 K, Crystal 2 | 72.16 ± 1.1
801.29 K, Crystal 2 | 71.98 ± 1.1
801.46 K, Crystal 2 | 71.96 ± 1.1
801.63 K, Crystal 2 | 71.86 ± 1.1
801.79 K, Crystal 2 | 71.9 ± 1.1
801.96 K, Crystal 2 | 71.86 ± 1.1
802.12 K, Crystal 2 | 71.92 ± 1.1
802.29 K, Crystal 2 | 71.92 ± 1.1
802.46 K, Crystal 2 | 72.04 ± 1.1
802.62 K, Crystal 2 | 72.2 ± 1.1
802.79 K, Crystal 2 | 72.1 ± 1.1
802.96 K, Crystal 2 | 71.91 ± 1.1
803.12 K, Crystal 2 | 71.68 ± 1.1
803.29 K, Crystal 2 | 71.76 ± 1.1
803.46 K, Crystal 2 | 71.76 ± 1.1
803.63 K, Crystal 2 | 71.8 ± 1.1
803.79 K, Crystal 2 | 72.11 ± 1.1
803.96 K, Crystal 2 | 72.29 ± 1.1
804.13 K, Crystal 2 | 72.1 ± 1.1
804.29 K, Crystal 2 | 71.93 ± 1.1
804.46 K, Crystal 2 | 71.94 ± 1.1
804.62 K, Crystal 2 | 71.92 ± 1.1
804.79 K, Crystal 2 | 71.93 ± 1.1
804.96 K, Crystal 2 | 72.09 ± 1.1
805.13 K, Crystal 2 | 72.17 ± 1.1
805.29 K, Crystal 2 | 72.03 ± 1.1
805.46 K, Crystal 2 | 72.03 ± 1.1
805.63 K, Crystal 2 | 72 ± 1.2
805.79 K, Crystal 2 | 72.07 ± 1.2
805.96 K, Crystal 2 | 72.1 ± 1.1
806.13 K, Crystal 2 | 72.19 ± 1.1
806.29 K, Crystal 2 | 72.25 ± 1.1
806.46 K, Crystal 2 | 72.37 ± 1.1
806.63 K, Crystal 2 | 72.33 ± 1.1
806.79 K, Crystal 2 | 72.24 ± 1.1
806.96 K, Crystal 2 | 72.08 ± 1.1
807.13 K, Crystal 2 | 71.96 ± 1.1
807.3 K, Crystal 2 | 71.9 ± 1.1
807.47 K, Crystal 2 | 72.16 ± 1.1
807.63 K, Crystal 2 | 72.29 ± 1.2
807.8 K, Crystal 2 | 72.39 ± 1.1
807.97 K, Crystal 2 | 72.54 ± 1.2
808.13 K, Crystal 2 | 72.48 ± 1.2
808.3 K, Crystal 2 | 72.36 ± 1.1
808.47 K, Crystal 2 | 72.31 ± 1.1
808.64 K, Crystal 2 | 72.39 ± 1.1
808.81 K, Crystal 2 | 72.34 ± 1.1
808.97 K, Crystal 2 | 72.47 ± 1.2
809.14 K, Crystal 2 | 72.61 ± 1.3
809.3 K, Crystal 2 | 72.59 ± 1.3
809.47 K, Crystal 2 | 72.53 ± 1.3
809.64 K, Crystal 2 | 72.6 ± 1.2
809.8 K, Crystal 2 | 72.59 ± 1.2
809.97 K, Crystal 2 | 72.54 ± 1.1
855 K, Crystal 1 | 69.38 ± 1.3
855.17 K, Crystal 1 | 69.28 ± 1.2
855.33 K, Crystal 1 | 69.26 ± 1.2
855.5 K, Crystal 1 | 69.13 ± 1.1
855.67 K, Crystal 1 | 69.16 ± 1.2
855.83 K, Crystal 1 | 69.22 ± 1.2
856 K, Crystal 1 | 69.21 ± 1.2
856.16 K, Crystal 1 | 69.11 ± 1.2
856.33 K, Crystal 1 | 69.06 ± 1.2
856.5 K, Crystal 1 | 68.99 ± 1.1
856.66 K, Crystal 1 | 68.93 ± 1.1
856.83 K, Crystal 1 | 68.69 ± 1.1
857 K, Crystal 1 | 68.5 ± 1.1
857.17 K, Crystal 1 | 68.55 ± 1.2
857.34 K, Crystal 1 | 68.66 ± 1.2
857.51 K, Crystal 1 | 68.7 ± 1.1
857.68 K, Crystal 1 | 68.71 ± 1.2
857.84 K, Crystal 1 | 68.75 ± 1.2
858.01 K, Crystal 1 | 68.66 ± 1.2
858.17 K, Crystal 1 | 68.56 ± 1.2
858.34 K, Crystal 1 | 68.6 ± 1.1
858.51 K, Crystal 1 | 68.58 ± 1.1
858.68 K, Crystal 1 | 68.63 ± 1.1
858.84 K, Crystal 1 | 68.51 ± 1.1
859.01 K, Crystal 1 | 68.34 ± 1.1
859.18 K, Crystal 1 | 68.29 ± 1.1
859.34 K, Crystal 1 | 68.29 ± 1.1
859.51 K, Crystal 1 | 68.3 ± 1.1
859.68 K, Crystal 1 | 68.35 ± 1.1
859.84 K, Crystal 1 | 68.21 ± 1.1
860.01 K, Crystal 1 | 68.03 ± 1.1
860.18 K, Crystal 1 | 68.14 ± 1.1
860.34 K, Crystal 1 | 68.2 ± 1.1
860.51 K, Crystal 1 | 68.18 ± 1.1
860.67 K, Crystal 1 | 68.22 ± 1.1
860.84 K, Crystal 1 | 68.32 ± 1.1
861.01 K, Crystal 1 | 68.41 ± 1.1
861.17 K, Crystal 1 | 68.37 ± 1.1
861.34 K, Crystal 1 | 68.49 ± 1.1
861.51 K, Crystal 1 | 68.55 ± 1.1
861.67 K, Crystal 1 | 68.37 ± 1.1
861.84 K, Crystal 1 | 68.37 ± 1.1
862.01 K, Crystal 1 | 68.4 ± 1.1
862.18 K, Crystal 1 | 68.4 ± 1.1
862.34 K, Crystal 1 | 68.53 ± 1.1
862.51 K, Crystal 1 | 68.5 ± 1.1
862.68 K, Crystal 1 | 68.45 ± 1.1
862.84 K, Crystal 1 | 68.5 ± 1.1
863.01 K, Crystal 1 | 68.42 ± 1.1
863.18 K, Crystal 1 | 68.35 ± 1.1
863.35 K, Crystal 1 | 68.3 ± 1.1
863.51 K, Crystal 1 | 68.21 ± 1.1
863.68 K, Crystal 1 | 68.19 ± 1.1
863.85 K, Crystal 1 | 68.28 ± 1.1
864.01 K, Crystal 1 | 68.44 ± 1.1
864.18 K, Crystal 1 | 68.48 ± 1.1
864.34 K, Crystal 1 | 68.4 ± 1.1
864.51 K, Crystal 1 | 68.29 ± 1.1
864.68 K, Crystal 1 | 68.37 ± 1.1
864.84 K, Crystal 1 | 68.59 ± 1.1
865.01 K, Crystal 1 | 68.52 ± 1.1
865.18 K, Crystal 1 | 68.35 ± 1.1
865.34 K, Crystal 1 | 68.39 ± 1.1
865.5 K, Crystal 1 | 68.4 ± 1.1
865.67 K, Crystal 1 | 68.46 ± 1.1
865.84 K, Crystal 1 | 68.59 ± 1.1
866.01 K, Crystal 1 | 68.64 ± 1.1
866.18 K, Crystal 1 | 68.69 ± 1.1
866.35 K, Crystal 1 | 68.59 ± 1.1
866.51 K, Crystal 1 | 68.39 ± 1.1
866.67 K, Crystal 1 | 68.35 ± 1.1
866.84 K, Crystal 1 | 68.26 ± 1.1
867.01 K, Crystal 1 | 68.21 ± 1.1
867.17 K, Crystal 1 | 68.25 ± 1.1
867.34 K, Crystal 1 | 68.38 ± 1.1
867.51 K, Crystal 1 | 68.37 ± 1.1
867.67 K, Crystal 1 | 68.45 ± 1.1
867.84 K, Crystal 1 | 68.49 ± 1.1
868.01 K, Crystal 1 | 68.4 ± 1.1
868.18 K, Crystal 1 | 68.35 ± 1.1
868.34 K, Crystal 1 | 68.32 ± 1.1
868.51 K, Crystal 1 | 68.4 ± 1.1
868.68 K, Crystal 1 | 68.45 ± 1.1
868.85 K, Crystal 1 | 68.49 ± 1.1
869.01 K, Crystal 1 | 68.43 ± 1.1
